From article PMC3027097 (Journal of Translational Medicine, 2011)

Key:
[1] = system: vascular smooth muscle cells (VSMC); assay: hFN-induced cell proliferation assay (cell number), VSMC; type: cell-based
Procedure: (§1) In vitro studies were performed on cell cultures of ECs or VSMCs, cultured in Dulbecco's modified Eagle's medium (DMEM; Sigma-Aldrich, Milan, Italy) as previously described and validated. Cell culture plates were filled with 10 μg/cm^2 of human fibronectin (hFN, Millipore®, Bedford, MA, USA) as described. All experiments were performed in triplicate with cells between passages 5 and 9.
(§2) Cell cultures were prepared as previously described. Briefly, cells were seeded at density of 100000 per well in six-well plates, serum starved, pre-incubated at 37°C for 30' with c(RGDf[NMe]V) or RGDechiHCit (10^-6 M). Proliferation was induced using hFN (100 μg/ml). Cell number was measured at 3, 6 and 20 h after stimulation as previously described.

[2] = system: VEGF production in bovine aortic endothelial cells (ECs); assay: VEGF quantification by western blot, EC; type: cell-based; settings: 6 hours of stimulation with hFN, peptides 10^-6 M, mean ± SEM
Procedure: VEGF production was measured as previously described [26]. Briefly, ECs were seeded at a density of 600000 per well in six well plates, serum starved overnight, seeded with c(RGDf[NMe]V) or RGDechiHCit (10^-6 M) and then stimulated with hFN for 6 hours.
Immunoblot analyses were performed as previously described and validated [23, 28]. […] Levels of VEGF were determined using an antibody raised against VEGF-165 (Santa Cruz Biotechnology) [26]. Experiments were performed in triplicate to ensure reproducibility. Data are presented as arbitrary densitometry units (ADU) after normalization for the total corresponding protein or actin as internal control [24].

c57BL/6 mice = assay: Matrigel plugs, EC infiltration by lectin staining; type: in vivo, mouse; settings: s.c. Matrigel with VEGF and 10^-5M peptide, seven days, mean ± SEM
Procedure: (§3) Wound healing assay was performed on 14-week-old (weight 293 ± 21 g) normotensive WKY male rats (Charles River Laboratories, Calco (LC), Italy; n = 18), and Matrigel plugs experiments were carried out on 16-week-old (weight 33 ± 4 g) c57BL/6 mice (Charles River Laboratories, Milan, Italy; n = 13). All animal procedures were performed in accordance with the Guide for the Care and Use of Laboratory Animals published by the National Institutes of Health in the United States (NIH Publication No. 85- 23, revised 1996) and approved by the Ethics Committee for the Use of Animals in Research of "Federico II" University.
Mice (n = 13), anesthetized as described above, were subcutaneously injected midway on the dorsal side, using sterile conditions, with 0.2 ml of Matrigel® basement matrix, pre-mixed with 10^-6M VEGF and 10^-5M c(RGDf[NMe]V) (n = 4), 10^-6M VEGF and 10^-5M RGDechiHCit (n = 5), or 10^-6M VEGF alone (n = 4). After seven days, mice were euthanized and the implanted plugs were harvested from underneath the skin, fixed in 10% neutral-buffered formalin solution and then embedded in paraffin. Invading ECs were identified and quantified by analysis of lectin immunostained sections, as described.
All tissues were cut in 5 μm sections and slides were counterstained with a standard mixture of hematoxylin and eosin. […]

[3] = system: ERK2 phosphorylation in EC; assay: hFN-induced ERK2 phosphorylation, western blot, EC; type: cell-based; settings: densitometry
Procedure: as §1
(§4) Immunoblot analyses were performed as previously described and validated. Mouse monoclonal antibodies to extracellular signal regulated kinase (ERK2) and phospho-ERK, anti-rabbit VEGF and actin were from Santa Cruz Biotecnology (Santa Cruz, CA, USA). Levels of VEGF were determined using an antibody raised against VEGF-165 (Santa Cruz Biotechnology). Experiments were performed in triplicate to ensure reproducibility. Data are presented as arbitrary densitometry units (ADU) after normalization for the total corresponding protein or actin as internal control.

[4] = system: bovine aortic endothelial cells (ECs); assay: Endothelial Matrigel assay (tube formation); type: cell-based; settings: hFN 100 μg/ml, peptides 10^-6 M, 37°C, mean ± SEM
Procedure: The formation of network-like structures by ECs on an extracellular matrix (ECM)-like 3D gel consisting of Matrigel® (BD Biosciences, Bedford, MA, USA), was performed as previously described and validated [27, 28]. The six-well multidishes were coated with growth factor-reduced Matrigel in according to the manufacturer's instructions. ECs (5×10^4) were seeded with c(RGDf[NMe]V) or RGDechiHCit (10^-6 M), in the absence (negative control) or presence (100 μg/ml) of hFN [24]. Cells were incubated at 37°C for 24h in 1 ml of DMEM. […] Network formation was observed using an inverted phase-contrast microscope (Zeiss). Representative fields were taken, and the average of the total number of complete tubes formed by cells was counted in 15 random fields by two independent investigators.

[5] = system: bovine aortic endothelial cells (EC); assay: hFN-induced cell proliferation assay (cell number), EC; type: cell-based
Procedure: as §1, §2

[6] = system: ERK2 phosphorylation in VSMC; assay: hFN-induced ERK2 phosphorylation, western blot, VSMC; type: cell-based; settings: densitometry
Procedure: as §1, §4

WKY rats = assay: Wound healing assay, full-thickness skin wound; type: in vivo, rat
Procedure: as §3
The rats (n = 18) were anesthetized using vaporized isoflurane (4%, Abbott) and maintained by mask ventilation (isoflurane 1.8%)[29]. The dorsum was shaved by applying a depilatory creme (Veet, Reckitt-Benckiser, Milano, Italy) and disinfected with povidone iodine scrub. […] Two operators blinded to the identity of the sample examined and measured wound areas every day, for 8 days. Direct measurements of wound region were determined by digital planimetry (pixel area), and subsequent analysis was performed using a computer-assisted image analyzer (ImageJ software, version 1.41, National Institutes of Health, Bethesda, MD, USA). Wound healing was quantified as a percentage of the original injury size. […]

[7] = human serum (Lonza, Basel, Switzerland); settings: 37°C, up to 24h

| Compound | VSMC proliferation ([1]; hFN 100 μg/ml stimulation, peptides 10^-6 M, mean ± SEM, NS) | VSMC proliferative response to hFN at 20h ([1]; hFN stimulation, 20h) | VEGF expression levels in EC [2] | EC infiltration of Matrigel plugs (c57BL/6 mice) [fold over VEGF alone] | hFN-induced phosphorylation of ERK2 in EC [3] | tube formation on Matrigel [4] [branches per 10000 μm^2] | EC proliferation ([5]; hFN 100 μg/ml stimulation, peptides 10^-6 M pre-incubated 30' at 37°C, after 6 hours, mean ± SEM) | EC proliferation, peptide given alone ([5]; without hFN) | hFN-induced phosphorylation of ERK2 in VSMC [6] | wound healing (closure of full-thickness wounds) (WKY rats; pluronic gel 30% containing 10^-6 M peptide placed daily on 20 mm wound, 8 days) | wound histology (WKY rats; wounds excised 8 days after surgery) | not cleaved [7] |
| --- | --- | --- | --- | --- | --- | --- | --- | --- | --- | --- | --- | --- |
| CC(C)[C@H]1C(=O)N[C@@H](CCCNC(=N)N)C(=O)NCC(=O)N[C@@H](CC(=O)O)C(=O)N[C@H](Cc2ccccc2)C(=O)N1C [c(RGDf[NMe]V)] | +0.9 ± 0.09 fold over basal | induced an attenuation of such proliferative response | +3.19 ± 0.73 fold over basal, ADU | 0.185 ± 0.027 | significantly inhibited | 14.11 ± 3.9 | +0.6 ± 0.38 fold over basal | did not affect EC proliferation | decreased such activation | slowed down healing | exhibited a retarded repair pattern |  |
| c(RGDf[NMe]V) |  |  |  |  |  |  |  |  |  |  |  | After 24h of incubation chromatogram and mass profiles failed to identify any degradation product |
